Results published in patent US20040110777A1, “Quinazolinones and pyridinylpyrimidinones for controlling invertebrate pests” (priority 2003, published 2004).

For `Cc1nc(C(F)(F)F)ccc1-c1nc2c(C)cccc2c(=O)n1C(C)C` [Compound 5, 8-methyl-3-(1-methylethyl)-2-[2-methyl-6-(trifluoromethyl)-3-pyridinyl]-4(3H)-quinazolinone], which melting point is on record?
The melting point was 132 to 135 °C.
